Measured values as given in patent US20120270864A1, “2-QUINOLINONE AND 2-QUINOXALINONE-DERIVATIVES AND THEIR USE AS ANTIBACTERIAL AGENTS” (ASTRAZENECA AB, priority 2006, published 2012).
Values after ≈ are worked out from the molar mass of the structure shown.

Legend:
Format in all cases: cell-based
[1] = test system: Staphylococcus aureus; assay: Bacterial Susceptibility Testing Methods 1 (MIC in liquid media, 96 well format); conditions: lowest drug concentration able to reduce growth by 80% or more, 37° C., 24 hours, read-out: MIC against Staphylococcus aureus
Text: Compounds may be tested for antimicrobial activity by susceptibility testing in liquid media in a 96 well format. Compounds may be dissolved in dimethylsulfoxide and tested in 10 doubling dilutions in the susceptibility assays. The organisms used in the assay may be grown overnight on suitable agar media and then suspended in a liquid medium appropriate for the growth of the organism. The suspension may be adjusted to be equal to a 0.5 McFarland and a further 1 in 10 dilution may be made into the same liquid medium to prepare the final organism suspension in 100 μL. Plates may be incubated under appropriate conditions at 37° C. for 24 hours prior to reading. The Minimum Inhibitory Concentration (MIC) was determined as the lowest drug concentration able to reduce growth by 80% or more.
Compounds were evaluated against a panel of Gram-positive species, including Staphylococcus aureus, Streptococcus pneumoniae, Streptococcus pyogenes, and Enterococcus faecium. In addition, compounds were evaluated against a panel of Gram-negative species including Haemophilus influenzae, Escherichia coli and Moraxella catarrhalis.

[2] = test system: Staphylococcus aureus (Sau) 516 cells; assay: Bacterial Susceptibility Testing Methods 2 (microbroth dilution, growth inhibition); conditions: Staphylococcus aureus, Tested Concentration 8 μg/mL; Staphylococcus aureus 516 cell growth suppressed compared to untreated sample
Text: Compounds may be tested for antimicrobial activity by susceptibility testing using microbroth dilution methods recommended by CSLI. Compounds may be dissolved in dimethylsulfoxide and tested in 10 doubling dilutions in the susceptibility assays such that the final dimethylsulfoxide concentration in the assay is 2% (v/v). The Staphylococcus aureus (Sau) 516 cells used in the assay may be grown overnight on appropriate agar media and then suspended in the NCCLS-recommended liquid susceptibility-testing media. […] Plates may be incubated under appropriate conditions of atmosphere and temperature and for times according to NCCLS standard methods prior to being read. As used in Table 1 below, the term “inhibition” refers to the percentage of Staphylococcus aureus 516 cell growth that is suppressed (compared to an untreated sample) by the compound of the indicated example number. When tested in the above in-vitro assay, the compounds and salts of the example numbers listed below were tested at the indicated concentrations, providing the indicated inhibitions. In most instances, the highest concentrations at which the compounds were tested was 8 μg/mL. In some instances, however, compounds were tested at concentrations higher than 8 μg/mL, typically when the concentration was first measured in μM and was subsequently converted to μg/mL. In those cases in which compounds were tested at more than one concentration higher than 8 μg/mL, the concentration closest to 8 μg/mL is provided below.

[3] = test system: Escherichia coli; assay: Bacterial Susceptibility Testing Methods 1 (MIC in liquid media, 96 well format); conditions: lowest drug concentration able to reduce growth by 80% or more, 37° C., 24 hours, read-out: MIC against Escherichia coli

- MIC [1]: 0.25 µg/mL (≈ 0.527 µM)
- MIC [3]: 0.5 µg/mL (≈ 1.05 µM)
Structure (SMILES): N#Cc1ccc2ccc(=O)n(CCN3CC[C@H](NCc4ccc5c(n4)NC(=O)CO5)[C@H](O)C3)c2c1 [Example 2, 1-[2-((3R,4S)-3-Hydroxy-4-{[(3-oxo-3,4-dihydro-2H-pyrido[3,2-b][1,4]oxazin-6-yl)methyl]amino}piperidin-1-yl)ethyl]-2-oxo-1,2-dihydro quino line-7-carbonitrile]
- inhibition at 8 µg/mL [2]: 100%
